Reference: publication PMC5394417, “Investigating the molecular mechanism of positive and negative allosteric modulators in the calcium-sensing receptor dimer” (Scientific Reports, 2017)

Molecular target: T1, HA-S170A/D190A CaSR mutant (Rattus norvegicus, UniProt P48442, D190A/S170A)
T1 construct: mGluR5 signal peptide (N); expressed in transfected cells; host or cells: HEK293T
T1 sequence (P48442 20-1079 S170A/D190A): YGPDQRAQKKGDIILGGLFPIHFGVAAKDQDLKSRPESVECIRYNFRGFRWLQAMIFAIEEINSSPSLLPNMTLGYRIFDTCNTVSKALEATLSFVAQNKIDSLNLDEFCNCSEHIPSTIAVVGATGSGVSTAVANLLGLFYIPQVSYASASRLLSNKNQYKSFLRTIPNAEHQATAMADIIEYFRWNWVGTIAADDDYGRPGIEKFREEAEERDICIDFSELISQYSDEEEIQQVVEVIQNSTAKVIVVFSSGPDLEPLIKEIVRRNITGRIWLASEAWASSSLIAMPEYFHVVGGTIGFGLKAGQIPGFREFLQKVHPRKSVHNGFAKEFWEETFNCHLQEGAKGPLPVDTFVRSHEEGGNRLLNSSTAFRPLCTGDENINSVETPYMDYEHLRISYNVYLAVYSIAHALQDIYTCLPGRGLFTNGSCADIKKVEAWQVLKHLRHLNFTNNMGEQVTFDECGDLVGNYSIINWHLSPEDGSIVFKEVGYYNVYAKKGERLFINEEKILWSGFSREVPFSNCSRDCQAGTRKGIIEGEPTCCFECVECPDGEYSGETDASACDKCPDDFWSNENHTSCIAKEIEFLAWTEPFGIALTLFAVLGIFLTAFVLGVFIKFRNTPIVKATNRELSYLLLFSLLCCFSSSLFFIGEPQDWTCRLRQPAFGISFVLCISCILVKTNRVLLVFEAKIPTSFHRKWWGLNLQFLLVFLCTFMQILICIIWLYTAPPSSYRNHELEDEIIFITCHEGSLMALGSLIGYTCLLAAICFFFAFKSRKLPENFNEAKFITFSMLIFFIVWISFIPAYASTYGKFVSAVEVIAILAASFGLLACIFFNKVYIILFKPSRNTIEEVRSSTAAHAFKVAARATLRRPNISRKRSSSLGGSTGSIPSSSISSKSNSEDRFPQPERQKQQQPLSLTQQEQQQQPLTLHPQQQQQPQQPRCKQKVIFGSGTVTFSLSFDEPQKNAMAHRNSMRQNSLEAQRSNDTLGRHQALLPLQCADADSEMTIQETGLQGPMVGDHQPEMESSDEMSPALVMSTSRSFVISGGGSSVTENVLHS
Test: IP-One assay, HEK293T transiently transfected
Type: cell-based

EC50 (Ca^2+ alone): 31.8 mM | Hill coefficient ± S.E.M. (Ca^2+ alone): 4.05 ± 0.43 | pEC50 ± S.E.M. (Ca^2+ alone): 1.50 ± 0.04 | Max ± S.E.M. (normalized to maximum response of WT CaSR): 49 ± 2.5%
SMILES: [Ca+2] [Ca^2+]
